Reference: patent publication US20070010671A1, “Novel quinazoline derivatives and methods of treatment related to the use thereof” (priority 2003, published 2007)

These compounds were tested against MCH receptor (Homo sapiens, UniProt Q99705) (assay: High throughput functional screening FLIPR/FDSS6000: inhibition of MCH-evoked intracellular Ca2+ changes). Conditions: class by percent of control at 10^-7 M or IC50.
Assay type: cell-based
Summary of the method: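 Antagonism was measured as inhibition of calcium responses to 50 nM MCH, monitored 290 s at ex 488/em 530 nm on FLIPR or FDSS6000. Beforehand, cells bearing a constitutively active MCH receptor received Fluo4-AM (4 μM, 1 h, 37 °C) with probenecid, and test compound for 3 min.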

Row | Compound | class
1 | CN(C)c1nc(N[C@H]2CC[C@@H](NC(=S)NCc3cccc4ccccc34)CC2)nc2ccccc12 [compound 289, N-(cis-4-{[4-(dimethylamino)quinazolin-2-yl]amino}cyclohexyl)-N′-(1-naphthylmethyl)thiourea] | 1 (Class 1: The value of percent of control at 10^−7 M was less than 40% or the value of IC50 was less than 50 nM.)
2 | CN(C)c1nc(N[C@H]2CC[C@@H](NC(=S)NCC(c3ccccc3)c3ccccc3)CC2)nc2ccccc12 [compound 290, N-(cis-4-{[4-(dimethylamino)quinazolin-2-yl]amino}cyclohexyl)-N′-(2,2-diphenylethyl)thiourea] | 2 (Class 2: The value of percent of control at 10^−7 M was from 40% to 60% or the value of IC50 was from 50 nM to 200 nM.)
3 | CN(C)c1nc(N[C@H]2CC[C@@H](NC(=S)Nc3c(Cl)c(Cl)cc(Cl)c3Cl)CC2)nc2ccccc12 [compound 291] | 3 (Class 3: The value of percent of control at 10^−7 M was more than 60% or the value of IC50 was more than 200 nM.)
4 | COc1cccc(CNC(=S)N[C@H]2CC[C@@H](Nc3nc(N(C)C)c4ccccc4n3)CC2)c1OC [compound 292, N-(2,3-dimethoxybenzyl)-N′-(cis-4-{[4-(dimethylamino)quinazolin-2-yl]amino}cyclohexyl)thiourea] | 1 (Class 1: The value of percent of control at 10^−7 M was less than 40% or the value of IC50 was less than 50 nM.)
5 | Cc1cc(C)c(NC(=S)N[C@H]2CC[C@@H](Nc3nc(N(C)C)c4ccccc4n3)CC2)cc1C [compound 293, N-(cis-4-{[4-(dimethylamino)quinazolin-2-yl]amino}cyclohexyl)-N′-(2,4,5-trimethylphenyl)thiourea] | 1 (Class 1: The value of percent of control at 10^−7 M was less than 40% or the value of IC50 was less than 50 nM.)
6 | CN(C)c1nc(N[C@H]2CC[C@@H](NC(=S)NCc3ccc(Cl)cc3Cl)CC2)nc2ccccc12 [compound 294] | 3 (Class 3: The value of percent of control at 10^−7 M was more than 60% or the value of IC50 was more than 200 nM.)
7 | CN(C)c1nc(N[C@H]2CC[C@@H](NC(=S)Nc3cc(Br)ccc3Br)CC2)nc2ccccc12 [compound 295] | 3 (Class 3: The value of percent of control at 10^−7 M was more than 60% or the value of IC50 was more than 200 nM.)
8 | COc1ccc(OC)c(CCNC(=S)N[C@H]2CC[C@@H](Nc3nc(N(C)C)c4ccccc4n3)CC2)c1 [compound 296, N-[2-(2,5-dimethoxyphenyl)ethyl]-N′-(cis-4-{[4-(dimethylamino)quinazolin-2-yl]amino}cyclohexyl)thiourea] | 2 (Class 2: The value of percent of control at 10^−7 M was from 40% to 60% or the value of IC50 was from 50 nM to 200 nM.)
9 | CN(C)c1nc(N[C@H]2CC[C@@H](NC(=S)Nc3ccccc3-c3ccccc3)CC2)nc2ccccc12 [compound 297, N-biphenyl-2-yl-N′-(cis-4-{[4-(dimethylamino)quinazolin-2-yl]amino}cyclohexyl)thiourea] | 1 (Class 1: The value of percent of control at 10^−7 M was less than 40% or the value of IC50 was less than 50 nM.)
10 | CN(C)c1nc(N[C@H]2CC[C@@H](NC(=S)Nc3cc([N+](=O)[O-])ccc3Cl)CC2)nc2ccccc12 [compound 298] | 3 (Class 3: The value of percent of control at 10^−7 M was more than 60% or the value of IC50 was more than 200 nM.)
11 | CN(C)c1nc(N[C@H]2CC[C@@H](NC(=S)Nc3ccccc3C#N)CC2)nc2ccccc12 [compound 299] | 3 (Class 3: The value of percent of control at 10^−7 M was more than 60% or the value of IC50 was more than 200 nM.)
12 | CN(C)c1nc(N[C@H]2CC[C@@H](NC(=S)NCc3ccccc3F)CC2)nc2ccccc12 [compound 300] | 2 (Class 2: The value of percent of control at 10^−7 M was from 40% to 60% or the value of IC50 was from 50 nM to 200 nM.)
13 | COc1ccc([N+](=O)[O-])cc1NC(=S)N[C@H]1CC[C@@H](Nc2nc(N(C)C)c3ccccc3n2)CC1 [compound 301] | 3 (Class 3: The value of percent of control at 10^−7 M was more than 60% or the value of IC50 was more than 200 nM.)
